Biological target: Poly [ADP-ribose] polymerase 1 (Homo sapiens, UniProt P09874)
Sequence (P09874 whole entry): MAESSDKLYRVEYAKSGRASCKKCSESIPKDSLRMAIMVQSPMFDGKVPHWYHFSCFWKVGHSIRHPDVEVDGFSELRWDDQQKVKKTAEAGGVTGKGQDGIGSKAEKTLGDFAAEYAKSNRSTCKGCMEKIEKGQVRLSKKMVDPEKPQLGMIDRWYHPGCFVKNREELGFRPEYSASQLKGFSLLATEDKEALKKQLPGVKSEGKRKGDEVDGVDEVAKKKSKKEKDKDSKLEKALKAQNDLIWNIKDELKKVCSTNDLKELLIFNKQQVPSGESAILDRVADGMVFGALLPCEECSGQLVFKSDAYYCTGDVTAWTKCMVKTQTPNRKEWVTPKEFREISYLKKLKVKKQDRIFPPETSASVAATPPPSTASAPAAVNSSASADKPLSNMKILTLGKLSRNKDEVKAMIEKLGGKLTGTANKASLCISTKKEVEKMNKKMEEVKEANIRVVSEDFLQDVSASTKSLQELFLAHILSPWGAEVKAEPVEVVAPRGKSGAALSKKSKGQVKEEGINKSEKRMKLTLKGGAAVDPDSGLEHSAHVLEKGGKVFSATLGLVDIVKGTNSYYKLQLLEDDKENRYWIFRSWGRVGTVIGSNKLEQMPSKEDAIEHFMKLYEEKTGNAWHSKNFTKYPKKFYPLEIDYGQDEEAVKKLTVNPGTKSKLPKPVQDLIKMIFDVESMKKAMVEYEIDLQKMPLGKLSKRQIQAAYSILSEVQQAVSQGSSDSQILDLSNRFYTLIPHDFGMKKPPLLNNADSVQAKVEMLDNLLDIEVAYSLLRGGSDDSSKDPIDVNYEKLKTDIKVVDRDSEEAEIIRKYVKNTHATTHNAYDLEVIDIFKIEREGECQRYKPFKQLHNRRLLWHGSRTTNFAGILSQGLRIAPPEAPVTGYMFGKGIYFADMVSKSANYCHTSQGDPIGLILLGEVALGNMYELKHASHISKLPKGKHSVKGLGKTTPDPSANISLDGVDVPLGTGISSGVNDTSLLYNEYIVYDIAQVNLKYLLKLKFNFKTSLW
Description: In vitro inhibitory concentration against Poly(ADP-ribose) polymerase 1

SMILES | IC50 [nM]
CC1CCC2NC(CCCN3CC=C(c4ccccc4)CC3)=NC(=O)C2C1 (centres undefined) | 274
O=c1[nH]c2cc(CN3CCOCC3)ccc2c2ccccc12 | 23
O=C1N=C(CCCN2CC=C(c3ccccc3)CC2)NC2CCCCC12 (centres undefined) | 20
O=c1[nH]c2ccc(CCCCN3CC=C(c4ccccc4)CC3)cc2c2ccccc12 | 119
O=C1N=C(CCCN2CC=C(c3ccccc3)CC2)NC2CCOCC12 (centres undefined) | 200
CN1CCC2NC(CCCN3CC=C(c4ccccc4)CC3)=NC(=O)C2C1 (centres undefined) | 6100
O=c1[nH]nc(CCCCN2CCOCC2)c2ccccc12 | 950
CC1=NC(=O)C2CSCCC2N1 (centres undefined) | 467
CC1(C)CCC2NC(CCCN3CC=C(c4ccccc4)CC3)=NC(=O)C2C1 (centres undefined) | > 10000
O=C1NC(CCCN2CC=C(c3ccccc3)CC2)=NC2CCCC12 (centres undefined) | 249
O=C1N=C(CCCN2CC=C(c3ccccc3)CC2)NC2CCNCC12 (centres undefined) | 8600
O=C1N=C(CCCN2CC=C(c3ccccc3)CC2)NC2CCCCCC12 (centres undefined) | 495
Oc1nnc(CCCCCN2CCOCC2)c2ccccc12 | 119
O=C1NC(CCCN2CC=C(c3ccccc3)CC2)=NC2CCSCC12 (centres undefined) | 8.9
